Measurements taken from patent US6949679B1, “Polyamine transport inhibitors” (Universite Laval, priority 1998, dated 2005).

Experiments:
[1] = MESC: amino group neighboring the amide linkage; cited from earlier work
ZR-75-1 cells [2] = test: Effect on ZR-75-1 cell proliferation (11 days, DNA content); format: cell-based, human
Procedure: For growth studies, ZR-75-1 cells were cultured in MEZR medium or in phenol red-free RPMI 1640 supplemented with 2 mM L-glutamine, 1 mM sodium pyruvate, 15 mM Hepes, antibiotics, 1 nM 17β-estradiol, 0.5 μg of bovine insulin per ml and 5% (v/v) charcoal-treated fetal bovine serum (SD medium), as indicated in the text. When polyamines or polyamine analogs were added to serum-containing media, 1 mM aminoguanidine was added to inhibit bovine serum amine oxidase (BSAO) activity (Morgan, D. M. L. 1989, in The Physiology of Polyamines (Bachrach, U., and Heimer, Y. M. eds) Vol. I, pp. 203-229, CRC Press, Boca Raton). The effect of the transport inhibitors on cell growth was measured by incubating ZR-75-1 cells for 11 days in medium supplemented with antagonist, polyamines and/or 1 mM DFMO as indicated, followed by colorimetric determination of DNA content with 3,4-diaminobenzoic acid (Simard, J., Dauvois, S., Haagensen, D. E., Lėvesque C., Mėrand, Y. and Labriė, F. 1990. Endocrinology 126: 3223-3231). Medium was changed every other day in these experiments because of the slow reaction of the compound with an unknown component present in the IMEM and RPMI 1640 medium formulation.
The biocompatibility of DESC, MESC, and DEASC was thus evaluated during a long-term (11-day) incubation with ZR-75-1 cells grown in RPMI 1640 containing 10% (v/v) FBS in the absence and presence of 1 mM aminoguanidine. […] Weak growth inhibition caused by the mixed MESC-cysteamine disulfide, however, apparently involved degradation by a copper amine oxidase.

polyamine transporter = test: Inhibition of [3H]spermidine uptake in CHO-K1 cells; format: cell-based, Chinese hamster; settings: [3H]spermidine as substrate
Procedure: To 1 ml of an extemporaneously prepared, DTT-free solution of MESC (20 mM in […]) were added 50 μl of 50 mM Tris-HCl (pH 7.0) and 105 μl of a 40 mM solution of either iodoacetamide, LY iodoacetamide or ASIB in a light-protected microcentrifuge tube, and the mixture was incubated for 2 hours at 37° C. […] Excess iodoacetamide was then inactivated by adding DTT to a final concentration of 40 mM and incubating the solution for 2 hours at 37° C. […] The effect of the respective DTT-inactivated iodoacetamide on spermidine transport was determined in parallel by incubating cells with the same reaction mixture from which MESC was omitted. […] J. Biol. […] Cells were then lysed with 200-μl aliquot of 1 N NaOH and incubated for 30 minutes at 60° C. After neutralization with 200 μl of 1 N HCl, radioactivity was determined from a 250-μl of the cell lysate by scintillation counting. Uptake activity was expressed per amount of total cellular protein as determined by the method of Bradford (Bradford, M. M. 1976. Anal. Biochem. 72: 248-254). […] K[…] Ki and Vmax values were then estimated by Lineweaver-Burke analysis. For competitive inhibitors, Ki values were also estimated by measuring uptake activity in the presence of logarithmically increasing concentrations of antagonist, and using the Cheng-Prusoff equation (Cheng, Y.-C. and Prusoff, W. H. 1973. Biochem. Pharmacol. 22: 3099-3108) by iterative curve fitting for a sigmoidal curve. For mixed competitive/noncompetitive inhibition, two methods were used to calculate kinetic constants. […] C. 1976. Enzymes, 3rd Ed., Academic Press, San Diego, Calif.). […] C. 1976. Enzymes, 3rd Ed., Academic Press, San Diego, Calif.). Intracellular Accumulation

ZR-75-1 cells [3] = test: Intracellular accumulation of inhibitor and polyamine contents (HPLC) in ZR-75-1 cells; format: cell-based, human
[4] = Stability in buffered aqueous solution; format: physicochemical; settings: buffered at pH=7.0
ZR-75-1 cells [5] = test: Time course of intracellular [3H]spermidine accumulation in presence of transport antagonists; format: cell-based, human; settings: 200 μM DESC (40-fold excess), 5 μM [3H]spermidine, after 6 hours
Procedure: The time course of intracellular accumulation of spermidine in the presence of transport antagonists was determined by incubating ZR-75-1 cells in 24-well plates with DESC (50 or 200 μM) or MESC (200 μM) in dissolved in MEZR medium containing 5 μM [^3H]spermidine in the presence or absence of cycloheximide (CHX, 200 μM), and harvesting at the indicated times for the determination of intracellular radioactive contents, as described above for polyamine uptake assays.

[6] = Stability in biological media (cell-free, HPLC); format: physicochemical; settings: IMEM, 48 hours, 37° C.
Procedure: DESC stability was tested by incubating the compound dissolved (at 50 μM) in PBS or in IMEM medium containing 10% (v/v) fetal bovine serum plus or minus 1 mM aminoguanidine in a humid 5% CO2 atmosphere at 37° C. and in the absence of cells. At indicated times, trichloroacetic acid was added to aliquots of this solution to a final concentration 10% (w/v) and the samples directly analyzed by HPLC as above.
The inability of DESC to block the biological effect of exogenous spermidine, even when present at large molar excesses, might have been caused by its degradation in growth media. To assess this hypothesis, DESC solutions (20 μM) made in PBS or in sterile IMEM medium enriched with 10% (v/v) FBS were incubated for 20 minutes or 48 hours under cell-free conditions at 37° C. in a humid 5% CO2 atmosphere, and the polyamine analog was then analyzed by ion-pair reversed-phase HPLC. After 48 hours, degradation of DESC to two new amine-containing derivatives occurred in IMEM (FIG. 9A, B) but not in PBS (FIG. 9C), as evidenced by the appearance of a major (compound 1) and minor (compound 2) peaks of o-phthaldialdehyde-reactive material eluting earlier than DESC. […] After 48 hours, i.e. the interval at which freshly made DESC-containing media were added to cell cultures in growth experiments, 40% of the DESC originally present had been decomposed by IMEM. […]

[7] = 200 μM compound + 200 μM CHX, 1 h
[8] = 200 μM compound + 200 μM CHX, 6 h

Row | Stability in aqueous solutions [4] | DESC originally present decomposed [6] | DESC accumulation as % of accumulation measured for spermine under identical conditions (ZR-75-1 cells [3]; 200 μM DESC, 6-hour incubation) | DESC intracellular content (ZR-75-1 cells [3]; [7]) | DESC intracellular content (ZR-75-1 cells [3]; [8]) | Compound | pKa of secondary amino group of the spermine head [1] | Decrease in cell growth (ZR-75-1 cells [2]; 200 μM, not blocked by aminoguanidine) | Ki (polyamine transporter) | Spermine intracellular content (ZR-75-1 cells [3]; 50 μM compound, 1 h) | Spermine intracellular content (ZR-75-1 cells [3]; 50 μM compound, 6 h) | Spermine intracellular content (ZR-75-1 cells [3]; 200 μM compound, 1 h) | Spermine intracellular content (ZR-75-1 cells [3]; 200 μM compound, 6 h) | Effect on cell growth (ZR-75-1 cells [2]; 50 μM, with or without 1 mM aminoguanidine) | Effect on cell growth (ZR-75-1 cells [2]; 200 μM) | Decrease of net spermidine accumulation (ZR-75-1 cells [5]) | Spermidine intracellular content (ZR-75-1 cells [3]; [7]) | Spermine intracellular content (ZR-75-1 cells [3]; [7]) | Spermine intracellular content (ZR-75-1 cells [3]; [8])
1 |  |  |  |  |  | NCCCNCCCC(NCCCN)C(=O)NCCS (stereo not shown) [MESC, N-(2-mercaptoethyl)spermine-5-carboxamide] | 5.5 | 35% | 33.6 ± 7.2 µM | 7.77 ± 0.06 nmol/mg protein | 8.13 ± 0.17 nmol/mg protein | 8.93 ± 0.53 nmol/mg protein | 8.32 ± 0.43 nmol/mg protein |  |  |  |  |  | 
2 | stable for months | 40% | about 1.5% | <0.01 nmol/mg protein | 0.10 nmol/mg protein | NCCCNCCCC(NCCCN)C(=O)NCCSSCCNC(=O)C(CCCNCCCN)NCCCN (stereo not shown) [DESC, 2,2′-dithiobis(N-ethyl-spermine-5-carboxamide)] |  |  | 0.92 ± 0.15 µM | 8.27 ± 0.81 nmol/mg protein |  | 8.77 ± 0.79 nmol/mg protein | 8.66 ± 0.26 nmol/mg protein | only mildly growth inhibitory | abrupt, aminoguanidine-resistant increase in toxicity | 50% | 0.75 ± 0.04 nmol/mg protein | 9.57 ± 0.31 nmol/mg protein | 9.55 ± 0.13 nmol/mg protein
